The text below walks through data of patent US7364900B2, “Multi-lineage directed induction of bone marrow stromal cell differentiation” (University of Medicine and Dentistry of New Jersey, priority 2001, dated 2008).

For the test, the system named is rMSCs. Briefly: Induction of nestin-positive endodermal/neuronal precursor cells from marrow stromal cells. It counts as cell-based, rat. The settings on record: sub-confluent rMSCs, pre-induction media supplemented with 1 mM BME, 24 hours. As for the experimental part:
Rat MSCs are originally cultured in alpha-Modified Eagle's Medium (alpha-MEM) supplemented with 20% FBS, 2 mM L-glutamine, 100 units per milliliter penicillin, 100 […] streptomycin and 25 nanograms per milliliter amphotericin B. For each passage the cells are plated at about 8,000 cells per square centimeter and grown to confluency. At passage 6 the cells are transferred to DMEM (pH 8.0)/20% FBS without additional supplementation, and maintained beyond passage 14. Subconfluent cultures of rat and human MSCs are maintained in DMEM/20% FBS.
Twenty-four hours before induction of partial differentiation to nestin-positive precursor cells, medium is replaced with a pre-induction medium consisting of DMEM, 20% FBS and 1 millimolar β-mercaptoethanol. The cells are then transferred to a serum free endodermal/neuronal precursor induction medium composed of DMEM and 1-10 millimolar β-mercaptoethanol. […] To effect further differentiation to pancreatic islet cell phenotype, the partially differentiated nestin-positive endodermal/neuronal precursor cells are transferred to serum-free DMEM containing 1-10 mM β-mercaptoethanol with and without 10 nanograms/ml basic fibroblast growth factor (bFGF).
rMSCs are initially maintained in sub-confluent cultures in pre-induction media supplemented with 1 mM beta-mercaptoethanol (BME) for 24 hours. […]

Regarding `OCCS` [BME, beta-mercaptoethanol], the changes in morphology entry is “no changes in morphology are evident”.
